From article PMC3886921, “Cofactor-Independent Phosphoglycerate Mutase from Nematodes Has Limited Druggability, as Revealed by Two High-Throughput Screens” (PLoS Neglected Tropical Diseases, 2014)

Legend:
[1] = molecular target: T1, cofactor-independent phosphoglycerate mutase (iPGAM) (Caenorhabditis elegans, UniProt G5EFZ1); experiment: HTS coupled enzyme assay at […] ([…] inhibition), re-tested and reconfirmed; assay type: biochemical
T1 construct: gene ipgm-1; Full-length, histidine-tagged
T1 sequence (G5EFZ1 1-539): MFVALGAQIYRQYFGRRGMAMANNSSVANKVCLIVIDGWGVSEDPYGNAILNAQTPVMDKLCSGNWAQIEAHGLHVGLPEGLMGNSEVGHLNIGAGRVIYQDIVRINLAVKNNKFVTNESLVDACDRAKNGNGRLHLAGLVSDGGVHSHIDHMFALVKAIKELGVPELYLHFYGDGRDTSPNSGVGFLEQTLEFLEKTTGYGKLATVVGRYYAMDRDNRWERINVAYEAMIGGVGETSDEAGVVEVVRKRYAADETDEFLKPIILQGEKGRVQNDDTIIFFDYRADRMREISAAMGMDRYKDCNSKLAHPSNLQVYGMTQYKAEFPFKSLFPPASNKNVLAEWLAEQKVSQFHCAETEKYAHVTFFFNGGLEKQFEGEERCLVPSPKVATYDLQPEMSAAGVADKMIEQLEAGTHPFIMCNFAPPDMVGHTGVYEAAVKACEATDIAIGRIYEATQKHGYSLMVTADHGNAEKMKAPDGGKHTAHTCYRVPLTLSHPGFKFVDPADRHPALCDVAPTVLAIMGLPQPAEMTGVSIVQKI

[2] = molecular target: T2, cofactor-independent phosphoglycerate mutase (iPGAM) (Brugia malayi, UniProt Q4VWF8); experiment: coupled enzyme assay (NADH absorbance at […] nm), luminescence (Kinase-Glo) confirmation; assay type: biochemical
T2 construct: gene ipgm-1; Full-length, histidine-tagged
T2 sequence (Q4VWF8 1-515): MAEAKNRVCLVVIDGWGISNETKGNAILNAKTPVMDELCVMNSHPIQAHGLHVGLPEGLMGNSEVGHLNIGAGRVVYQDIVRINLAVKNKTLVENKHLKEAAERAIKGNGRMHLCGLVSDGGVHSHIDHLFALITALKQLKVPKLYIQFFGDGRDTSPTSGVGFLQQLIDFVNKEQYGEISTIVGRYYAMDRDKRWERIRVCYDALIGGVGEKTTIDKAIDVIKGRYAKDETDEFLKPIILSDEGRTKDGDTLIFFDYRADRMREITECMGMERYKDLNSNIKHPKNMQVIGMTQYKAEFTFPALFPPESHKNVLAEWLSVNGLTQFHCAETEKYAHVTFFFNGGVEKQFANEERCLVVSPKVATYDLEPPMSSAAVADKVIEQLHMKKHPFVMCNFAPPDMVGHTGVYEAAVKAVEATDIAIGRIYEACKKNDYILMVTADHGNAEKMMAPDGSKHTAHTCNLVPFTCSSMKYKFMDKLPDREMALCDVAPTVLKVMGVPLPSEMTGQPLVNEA

[3] = molecular target: T2, cofactor-independent phosphoglycerate mutase (iPGAM); experiment: coupled enzyme assay (NADH absorbance at […] nm), dose-response; luminescence (Kinase-Glo) confirmation; assay type: biochemical
[4] = substrate: O=C(O)[C@H](O)COP(=O)(O)O; experiment: enzyme kinetics (Km), coupled assay; assay type: biochemical, Brugia malayi; conditions: Mg2+
[5] = substrate: O=C(O)[C@H](O)COP(=O)(O)O; experiment: enzyme kinetics (Km), coupled assay; assay type: biochemical, Caenorhabditis elegans; conditions: Mg2+

CCc1cc2c[n+](C3CCCCC3)sc2s1 [Genz-2] showed an inhibition at 10 µM [1] greater than 40% and an IC50 [2] greater than 10 µM.

Work on Nc1cc2cccnc2c2ncccc12 [NCDS-1, 5-amino-1,10-phenanthroline] yielded an IC50 [3] greater than 10 µM.

B1: cofactor-independent phosphoglycerate mutase (iPGAM) (Brugia malayi) (protein)
chain: T2 sequence (Q4VWF8 1-515)
notes: Full-length, histidine-tagged
With B1 the Km [4] was 370 µM.

B2: cofactor-independent phosphoglycerate mutase (iPGAM) (Caenorhabditis elegans) (protein)
chain: T1 sequence (G5EFZ1 1-539)
notes: Full-length, histidine-tagged
Molecule B2 has a Km [5] of 380 µM.
